# Assay results: patent US8110682B2, “Preparation and use of compounds as aspartyl protease inhibitors” (Schering Corporation, priority 2005, dated 2012)
# Biological target: T1, sproBACE1 (soluble human BACE1) (Homo sapiens, UniProt P56817)
# T1 construct: sBACE1, corresponding to amino acids 1-454; myc (C); His (C); made in house; host or cells: Sf9 insect cells (baculovirus), secreted into medium
# Assay: BACE-1 peptide hydrolysis assay (HTRF, APPsw substrate)
# Assay type: biochemical
# Conditions: 7 nM sproBACE1, pH 5.0, 30° C.
# From the text: A predicted soluble form of human BACE1 (sBACE1, corresponding to amino acids 1-454) is generated from the full length BACE1 cDNA (full length human BACE1 cDNA in pcDNA4/mycHisA construct; University of Toronto) by PCR using the advantage-GC cDNA PCR kit (Clontech, Palo Alto, Calif.). A HindIII/Pmel fragment from pcDNA4-sBACE1 myc/His is blunt ended using Klenow and subcloned into the Stu I site of pFASTBACI(A) (Invitrogen). A sBACE1mycHis recombinant bacmid is generated by transposition in DH10Bac cells(GIBCO/BRL). Subsequently, the sBACE1 mycHis bacmid construct is transfected into sf9 cells using CellFectin (Invitrogen, San Diego, Calif.) in order to generate recombinant baculovirus. […]
# Proteins, are eluted from the Q-sepharose column with Buffer B (20 mM HEPES, pH 8.0, 500 mM NaCl). […] Peak protein fractions as determined by the Bradford Assay (Biorad, Calif.) are concentrated using a Centricon 30 concentrator (Millipore). sBACE1 purity is estimated to be ˜90% as assessed by SDS-PAGE and Commassie Blue staining. […]
# IC50 determinations for inhibitors, (I), are determined by measuring the percent change of the relative fluorescence at 665 nm divided by the relative fluorescence at 620 nm, (665/620 ratio), in the presence of varying concentrations of I and a fixed concentration of enzyme and substrate.
# T1 sequence (P56817 22-454): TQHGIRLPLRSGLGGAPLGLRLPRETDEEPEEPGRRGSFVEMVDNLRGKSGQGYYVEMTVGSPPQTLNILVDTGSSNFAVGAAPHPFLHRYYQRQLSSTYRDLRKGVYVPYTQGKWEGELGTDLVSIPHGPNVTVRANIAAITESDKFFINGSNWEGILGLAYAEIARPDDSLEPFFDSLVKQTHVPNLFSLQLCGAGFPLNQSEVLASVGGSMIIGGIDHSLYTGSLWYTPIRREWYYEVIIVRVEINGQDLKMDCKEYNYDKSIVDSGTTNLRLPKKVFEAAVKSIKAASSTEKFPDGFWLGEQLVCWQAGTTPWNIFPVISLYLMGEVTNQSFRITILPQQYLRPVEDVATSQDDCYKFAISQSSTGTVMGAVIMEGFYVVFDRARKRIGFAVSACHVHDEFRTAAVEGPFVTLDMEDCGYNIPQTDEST
compound,measurement,value
CN1C(=N)NC(C)(c2cccc(-c3cc(Cl)cc(Cl)c3)c2)N(C)C1=O (stereo not shown) [Example 7],Ki,1360 nM
